Marks after values point to notes of the source that are not given here.
How the values were obtained:
[1] = tested on: Total Protein (TP); assay: Total protein in gastric juice; format: in vivo, rats; conditions: Sulindac 100, Compound 8 150, mean ±SEM
Protocol: Total Protein (TP), or dissolved proteins in gastric juice, was estimated through alcohol precipitation. 90% alcohol was added to gastric juice at a 9:1 ratio, and then 0.1 ml of the alcoholic precipitate of gastric juice was dissolved in 1 ml of 0.1 N NaOH, and 0.05 ml of this suspension was placed in a test tube. 4 ml of an alkaline mixture was then added to the test tube and incubated at room temperature for 10 minutes. 0.4 ml of a phenol reagent was then added, and after a further 10 minutes, once color had developed, a reading was taken against a blank containing distilled water at 610 nm on a spectrophotometer. TP content was then calculated from a standard curve prepared with bovine albumin and expressed as g/L of gastric juice. Results were calculated by ANOVA followed by Dunnett's multiple comparison test and are summarized in Table 9, represent mean±SEM; **=p<0.01; ***=p<0.001 (n=6).

[2] = LD50 by the Karber method; format: in vivo; conditions: 24 hours observation
Protocol: In a study of the LD50 of sulindac derivative Compound 8, the LD50 (lethal dose 50%) was calculated for compound 8 by the Karber method. For determination of LD50, an observation was made for 24 hours, and symptoms of toxicity and rate of mortality were noted. Expired animals were counted at the end of the study period for the calculation of LD50 according to: LD50=LD100−Σ(a×b)/n, where n is the total number of animals in a group, a is the difference between two successive doses of administered extract/substance, b is the average number of dead animals in two successive doses, and LD100 is the lethal dose causing 100% death of all test animals.

[3] = tested on: gastric lesions induced by indomethacin; assay: Gastric lesions induced by indomethacin; format: in vivo, rats; conditions: for Ulcer Index: rats given indomethacin 30 mg/kg oral, Sulindac 100 mg/kg, Compound 8 150 mg/kg half an hour before, mean ±SEM
Protocol: All animal experiments used healthy male albino rats (200 g-220 g) and mice. The animals were kept in standard plastic animal cages in groups of six animals each with a 12 hour light and dark cycle. The animals were acclimatized to laboratory conditions for a week prior to the experiments.
In a study of the effect of sulindac derivatives on gastric lesions induced by indomethacin, a suspension of indomethacin in 1.0% carboxymethylcellulose (CMC) in water (6 mg/mL) at a dose of (30 mg/kg) body weight was administered orally to rats. Control rats were treated with the vehicle. Sulindac derivative Compound 8 was administered half an hour prior to indomethacin administration at a dose of 150 mg/kg.

[4] = DPPH free radical scavenging (antioxidant activity); conditions: 100 μg/mL compound in 3 mL 0.004% DPPH, 520 nm after 30 min; mean of three replicates ±SD
Protocol: The antioxidant activity was measured based on the scavenging activity of the stable DPPH free radical. 100 μg/mL of the twenty-five sulindac derivative compounds were added to 3 mL 0.004% DPPH solution. Methanol was added to 3 mL 0.004% DPPH solution for the control sample. Absorbance was determined at 520 nm after 30 min. Butylated hydroxytoluene (BHT) was used as a reference drug. The percent inhibition was calculated by the equation:
[formula] where At is the absorbance of the compound and A0 is the absorbance of the control.

Structure (SMILES)	TP ([1]; drug alone, no ethanol)	TP ([1]; with 80% Ethanol 1 mL)	# Dead ([2]; dose 100 mg/kg)	# Dead ([2]; dose 200 mg/kg)	# Dead ([2]; dose 400 mg/kg)	# Dead ([2]; dose 800 mg/kg)	# Dead ([2]; dose 1600 mg/kg)	# Dead ([2]; dose 2000 mg/kg)	LD50 at 24 h ([2]; in vivo, Karber method, LD50=LD100−Σ(a×b)/n) [mg/kg]	Ulcer Index [3]	% Inhibition (ulcer index) ([3]; rats given indomethacin 30 mg/kg, Compound 8 150 mg/kg, versus indomethacin alone) [%]	Scavenging Effect [4] [%]
CC1=C(CC(=O)N/N=C\c2ccc(N(C)C)cc2)c2cc(F)ccc2/C1=C\c1ccc([S+](C)[O-])cc1 (stereo not drawn) [Compound 8]	114.57 ± 1.89*** g/L	100.99 ± 2.42*** g/L	0	0	1	3	5	9	1310	22.16 ± 1.10	40.09	85.10 ± 6.80
CC1=C(CC(=O)O)c2cc(F)ccc2/C1=C\c1ccc([S+](C)[O-])cc1 (stereo not drawn) [Sulindac]	105.78 ± 1.43*** g/L	93.81 ± 3.05*** g/L								32.00 ± 3.86		
